Measurements published in PubChem BioAssay AID2060627 (Molecular Pharmacology Branch, DTP, NCI, 2025).

System: 156681-154-R-J1-PDC complex spheroid viability
Test: Anticancer human tumor 156681-154-R-J1-PDC patient-derived melanoma cell line growth inhibition [CLK]
Details: for IC50: curve of first compound; for viability, T/C: stronger effect = lower value
Procedure, shortened: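 Patient-derived tumor cells grown as complex spheroids with HUVEC endothelial cells and mesenchymal stem cells, treated with drug combinations. Concentrations descend in half-log steps from near clinical Cmax, or from 10 microM if Cmax unknown.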
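Further: spheroids exposed to the agents for seven days.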
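Wherever viability, T/C is given: 100% = DMSO vehicle control viability.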

Compound: CCN1CCN(Cc2ccc(Nc3ncc(F)c(-c4cc(F)c5nc(C)n(C(C)C)c5c4)n3)nc2)CC1 + CNC(=O)c1ccc(Nc2nc(OC3CCCC3)c3c(-c4ccc5nc(C)oc5c4)c[nH]c3n2)c(OC)c1
- IC50 (second compound 0.0316 µM): 825 nM
- IC50 (second compound 0.1 µM): 429 nM
- IC50 (second compound 0.316 µM): 429 nM
- IC50 (second compound 1 µM): 394 nM
- IC50 (second compound 3.16 µM): < 3.16 nM
- IC50 (second compound 10 µM): < 3.16 nM
- viability, T/C (second compound 0.0316 µM, first compound 0.00316 µM): 93%
- viability, T/C (second compound 0.0316 µM, first compound 0.01 µM): 104%
- viability, T/C (second compound 0.0316 µM, first compound 0.0316 µM): 83.7%
- viability, T/C (second compound 0.0316 µM, first compound 0.1 µM): 84.2%
- viability, T/C (second compound 0.0316 µM, first compound 0.316 µM): 75.5%
- viability, T/C (second compound 0.0316 µM, first compound 1 µM): 44.3%
- viability, T/C (second compound 0.1 µM, first compound 0.00316 µM): 50.5%
- viability, T/C (second compound 0.1 µM, first compound 0.01 µM): 72.3%
- viability, T/C (second compound 0.1 µM, first compound 0.0316 µM): 68.2%
- viability, T/C (second compound 0.1 µM, first compound 0.1 µM): 57.9%
- viability, T/C (second compound 0.1 µM, first compound 0.316 µM): 52.9%
- viability, T/C (second compound 0.1 µM, first compound 1 µM): 38.6%
- viability, T/C (second compound 0.316 µM, first compound 0.00316 µM): 85.4%
- viability, T/C (second compound 0.316 µM, first compound 0.01 µM): 62%
- viability, T/C (second compound 0.316 µM, first compound 0.0316 µM): 72.2%
- viability, T/C (second compound 0.316 µM, first compound 0.1 µM): 77.8%
- viability, T/C (second compound 0.316 µM, first compound 0.316 µM): 54%
- viability, T/C (second compound 0.316 µM, first compound 1 µM): 39%
- viability, T/C (second compound 1 µM, first compound 0.00316 µM): 51.8%
- viability, T/C (second compound 1 µM, first compound 0.01 µM): 56.5%
- viability, T/C (second compound 1 µM, first compound 0.0316 µM): 51.3%
- viability, T/C (second compound 1 µM, first compound 0.1 µM): 60.2%
- viability, T/C (second compound 1 µM, first compound 0.316 µM): 61%
- viability, T/C (second compound 1 µM, first compound 1 µM): 24.2%
- viability, T/C (second compound 3.16 µM, first compound 0.00316 µM): 61.6%
- viability, T/C (second compound 3.16 µM, first compound 0.01 µM): 47.8%
- viability, T/C (second compound 3.16 µM, first compound 0.0316 µM): 40.7%
- viability, T/C (second compound 3.16 µM, first compound 0.1 µM): 48%
- viability, T/C (second compound 3.16 µM, first compound 0.316 µM): 46.6%
- viability, T/C (second compound 3.16 µM, first compound 1 µM): 19.8%
- viability, T/C (second compound 10 µM, first compound 0.00316 µM): 51.7%
- viability, T/C (second compound 10 µM, first compound 0.01 µM): 38.5%
- viability, T/C (second compound 10 µM, first compound 0.0316 µM): 43.8%
- viability, T/C (second compound 10 µM, first compound 0.1 µM): 51%
- viability, T/C (second compound 10 µM, first compound 0.316 µM): 41.9%
- viability, T/C (second compound 10 µM, first compound 1 µM): 21.7%
